Laboratory results published in US8148373B2, “Compounds” (AstraZeneca AB, priority 2008, dated 2012).

Tests used:
[1] = molecular target: T1, Adrenergic β2 (H292 cells) (Homo sapiens, UniProt P07550); experiment: Adrenergic β2 Mediated cAMP Production, single concentration 1 μM; format: cell-based; settings: percentage of the maximum response generated by 1E-07M formoterol; for activation at 1 µM: NCI-H292, 1 μM compound, read-out: β2 (% effect at 1 μM)
T1 construct: endogenous in cells; host or cells: H292 cells
T1 sequence (P07550 whole entry): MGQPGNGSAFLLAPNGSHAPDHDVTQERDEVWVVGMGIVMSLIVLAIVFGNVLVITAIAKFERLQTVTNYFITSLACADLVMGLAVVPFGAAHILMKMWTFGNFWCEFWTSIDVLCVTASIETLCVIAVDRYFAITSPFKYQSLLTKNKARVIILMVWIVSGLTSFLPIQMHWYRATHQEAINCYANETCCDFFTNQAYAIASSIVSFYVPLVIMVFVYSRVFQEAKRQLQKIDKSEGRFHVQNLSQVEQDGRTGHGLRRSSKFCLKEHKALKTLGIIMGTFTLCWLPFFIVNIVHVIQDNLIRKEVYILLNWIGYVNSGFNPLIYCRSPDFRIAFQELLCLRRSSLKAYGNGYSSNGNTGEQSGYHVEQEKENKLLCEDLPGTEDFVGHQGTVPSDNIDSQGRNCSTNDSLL
Experimental: The following experimental procedure was used to measure the beta-2% effect at 1 μM for the compounds of Examples 116-263. Adrenergic β2 Mediated cAMP Production Cell Preparation
H292 cells are grown in 225 cm2 flasks incubator at 37° C., 5% CO2 in RPMI medium containing 10% (v/v) FBS (foetal bovine serum) and 2 mM L-glutamine.
Compounds were prepared by an initial first dilution into DMSO to give 1 mM stock concentration. This was followed by a 1 in 10 dilution of the stock concentration (10 μl stock compound+90 μl DMSO) to give 0.1 mM compound.
A compound addition plate was prepared by making a further 1 in 25 dilution in assay buffer (HBSS solution containing 10 mM HEPES pH7.4 and 5 mM glucose) containing 4% dimethylsulfoxide. The final compound concentration in assay is 1 μM.
Adherent H292 cells are removed from tissue culture flasks by treatment with Accutase™ cell detachment solution for 15 minutes. Flasks are incubated for 15 minutes in a humidified incubator at 37° C., 5% CO2. Detached cells are re-suspended in RPMI media (containing 10% (v/v) FBS and 2 mM L-glutamine) at 0.1×10^6 cells per mL. 10000 cells in 100 μL are added to each well of a tissue-culture-treated 96-well plate and the cells incubated overnight in a humidified incubator at 37° C., 5% CO2. The culture media is removed and cells are washed twice with 100 μL assay buffer and replaced with 50 μL assay buffer (HBSS solution containing 10 mM HEPES pH7.4 and 5 mM glucose). Cells are rested at room temperature for 20 minutes after which time 25 μL of rolipram (1.2 mM made up in assay buffer) is added. Cells are incubated with rolipram for 10 minutes after which time 25 μl test compounds are added and the cells are incubated for 60 minutes at room temperature. The final rolipram concentration in the assay is 300 μM and final vehicle concentration is 1% (v/v) dimethylsulphoxide. The reaction is stopped by removing supernatants, washing once with 100 μL assay buffer and replacing with 50 μL lysis buffer. The cell monolayer is frozen at −80° C. for 30 minutes (or overnight).
AlphaScreen™ cAMP Detection
The concentration of cAMP (cyclic adenosine monophosphate) in the cell lysate is determined using AlphaScreen™ methodology. The frozen cell plate is thawed for 20 minutes on a plate shaker then 10 μL of the cell lysate is transferred to a 96-well white plate. 40 μL of mixed AlphaScreen™ detection beads (containing equal volumes of donor beads (pre-incubated with biotinylated cAMP in the dark for 30 minutes) and acceptor beads is added to each well and the plate incubated at room temperature for 3 hours in the dark. The AlphaScreen™ signal is measured using an EnVision spectrophotometer (Perkin-Elmer Inc.) with the recommended manufacturer's settings. Concentration of cAMP produced per well were calculated with reference to the cAMP standard curve determined in the same experiment and expressed as a percentage of the maximum response generated by 1E-07M formoterol.

[2] = molecular target: T2, human muscarinic acetylcholine M3 receptor (M3-ACh) (Homo sapiens, UniProt P20309); experiment: Muscarinic 3 Receptor Binding Assay, % inhibition specific binding at 1 μM; settings: 1 μM compound, % inhibition specific [3H]-NMS binding
T2 construct: expressed in transfected cells; host or cells: CHO-K1 (Chinese Hamster Ovary) cell membranes
T2 sequence (P20309 whole entry): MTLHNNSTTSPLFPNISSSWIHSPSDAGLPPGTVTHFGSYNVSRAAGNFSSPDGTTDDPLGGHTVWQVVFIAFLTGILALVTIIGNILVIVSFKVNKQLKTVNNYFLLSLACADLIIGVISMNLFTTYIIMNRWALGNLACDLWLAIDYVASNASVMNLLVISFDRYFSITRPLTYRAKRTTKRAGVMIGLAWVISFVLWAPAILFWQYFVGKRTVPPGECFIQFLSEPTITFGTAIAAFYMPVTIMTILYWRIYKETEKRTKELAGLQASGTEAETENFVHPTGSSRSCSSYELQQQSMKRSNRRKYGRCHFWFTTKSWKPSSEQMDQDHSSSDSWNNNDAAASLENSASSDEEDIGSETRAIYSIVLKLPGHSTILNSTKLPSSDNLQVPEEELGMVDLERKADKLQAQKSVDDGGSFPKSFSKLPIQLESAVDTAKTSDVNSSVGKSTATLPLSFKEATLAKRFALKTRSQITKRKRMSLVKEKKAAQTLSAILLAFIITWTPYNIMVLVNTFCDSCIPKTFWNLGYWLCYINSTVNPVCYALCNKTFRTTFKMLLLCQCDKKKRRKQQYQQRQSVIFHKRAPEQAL
Experimental: The following experimental procedure was used to determine the M3% inhibition at 1 μM of the compounds of Examples 116-263.
Muscarinic 3 Receptor Binding Assay
The activity (% inhibition specific binding) of compounds -on the M3 receptor is determined by competition binding of [^3H]N-methyl scopolamine (NMS) to CHO-K1 (Chinese Hamster Ovary) cell membranes expressing the human muscarinic acetylcholine M3 receptor (M3-ACh) in a scintillation proximity assay (SPA) format.
SPA beads are precoated with membranes and then incubated at 2 mg of beads per well with 1 μM compound of the invention, [^3H]NMS at 0.1 nM, quarter Kd (experimentally determined dissociation constant) and assay buffer (20 mM HEPES pH 7.4 containing 5 mM MgCl2). The assay is conducted in a final volume of 200 μL, in the presence of 1% (v/v) dimethyl sulphoxide (DMSO). Total binding of [^3H]NMS is determined in the absence of competing compound and non-specific binding of [^3H]NMS is determined in the presence of 1 μM atropine. The plates are incubated for 16 hours at room temperature and then read on Wallac Microbeta™ using a normalised ^3H protocol. The compound activity at 1 defined as % inhibition specific [^3H]-NMS binding, is determined.

O=C(CCCc1cccs1)N1CCOC2(CCN(CCOc3ccc(CNC[C@H](O)c4ccc(O)c5[nH]c(=O)sc45)cc3)CC2)C1 [Example 224, (R)-4-hydroxy-7-(1-hydroxy-2-(4-(2-(4-(4-(thiophen-2-yl)butanoyl)-1-oxa-4,9-diazaspiro[5.5]undecan-9-yl)ethoxy)benzylamino)ethyl) benzo[d]thiazol-2(3H)-one]
activation at 1 µM [1]: 89%
inhibition at 1 µM [2]: 70%

O=C(c1ccc(-c2ccccc2)cc1)N1CCOC2(CCN(Cc3cc(F)cc(CCNC[C@H](O)c4ccc(O)c5[nH]c(=O)sc45)c3)CC2)C1 [Example 145, (R)-7-(2-(3-((4-(biphenylcarbonyl)-1-oxa-4,9-diazaspiro[5.5]undecan-9-yl)methyl)-5-fluorophenethylamino)-1-hydroxyethyl)-4-hydroxybenzo[d]thiazol-2(3H)-one]
β2 (% effect at 1 μM) ([1]; 1 μM compound): 53%
M3 (% inhibition at 1 μM) ([2]; 1 µM): 7%

Cc1cc(CC(=O)N2CCOC3(CCN(CCOc4ccc(CNC[C@H](O)c5ccc(O)c6[nH]c(=O)sc56)cc4)CC3)C2)on1 [Example 249, (R)-4-hydroxy-7-(1-hydroxy-2-(4-(2-(4-(2-(3-methylisoxazol-5-yl)acetyl)-1-oxa-4,9-diazaspiro[5.5]undecan-9-yl)ethoxy)benzylamino)ethyl) benzo[d]thiazol-2(3H)-one]
activation at 1 µM [1]: 76%
inhibition at 1 µM [2]: 31%

Cc1nc(C)c(CC(=O)N2CCOC3(CCN(CCOc4ccc(CNC[C@H](O)c5ccc(O)c6[nH]c(=O)sc56)cc4)CC3)C2)s1 [Example 252, (R)-7-(2-(4-(2-(4-(2-(2,4-dimethylthiazol-5-yl)acetyl)-1-oxa-4,9-diazaspiro[5.5]undecan-9-yl)ethoxy)benzylamino)-1-hydroxyethyl)-4-hydroxy-benzo[d]thiazol-2(3H)-one]
activation at 1 µM [1]: 88%
inhibition at 1 µM [2]: 10%

O=C(c1ccccc1)N1CCOC2(CCN(CCOc3ccc(CNC[C@H](O)c4ccc(O)c5[nH]c(=O)sc45)cc3)CC2)C1 [Example 223, (R)-7-(2-(4-(2-(4-benzoyl-1-oxa-4,9-diazaspiro[5.5]undecan-9-yl)ethoxy)benzylamino)-1-hydroxyethyl)-4-hydroxybenzo[d]thiazol-2(3H)-one]
activation at 1 µM [1]: 87%
inhibition at 1 µM [2]: 56%

O=C(CCOc1ccccc1)N1CCOC2(CCN(CCCCCCCCCNC[C@H](O)c3ccc(O)c4[nH]c(=O)sc34)CC2)C1 [Example 206, (R)-4-hydroxy-7-(1-hydroxy-2-(9-(4-(3-phenoxypropanoyl)-1-oxa-4,9-diazaspiro[5.5]undecan-9-yl)nonylamino)ethyl)benzo[d]thiazol-2(3H)-one]
activation at 1 µM [1]: 95%
inhibition at 1 µM [2]: 95%

O=C(CCCc1ccccc1)N1CCOC2(CCN(CCOc3ccc(CNC[C@H](O)c4ccc(O)c5[nH]c(=O)sc45)cc3)CC2)C1 [Example 229, (R)-4-hydroxy-7-(1-hydroxy-2-(4-(2-(4-(4-phenylbutanoyl)-1-oxa-4,9-diazaspiro[5.5]undecan-9-yl)ethoxy)benzylamino)ethyl) benzo[d]thiazol-2(3H)-one]
activation at 1 µM [1]: 83%
inhibition at 1 µM [2]: 67%

CC1=NNC(=O)C1CCC(=O)N1CCOC2(CCN(Cc3cc(F)cc(CCNC[C@H](O)c4ccc(O)c5[nH]c(=O)sc45)c3)CC2)C1 (stereo partly drawn) [Example 161, 7-((1R)-2-(3-fluoro-5-((4-(3-(3-methyl-5-oxo-4,5-dihydro-1H-pyrazol-4-yl)propanoyl)-1-oxa-4,9-diazaspiro[5.5]undecan-9-yl)methyl)phenethylamino)-1-hydroxyethyl)-4-hydroxybenzo[d]thiazol-2(3H)-one]
activation at 1 µM [1]: 87%
inhibition at 1 µM [2]: 42%

O=C(c1cc2ccccc2s1)N1CCOC2(CCN(CCOc3ccc(CNC[C@H](O)c4ccc(O)c5[nH]c(=O)sc45)cc3)CC2)C1 [Example 235, (R)-7-(2-(4-(2-(4-(benzo[b]thiophene-2-carbonyl)-1-oxa-4,9-diazaspiro[5.5]undecan-9-yl)ethoxy)benzylamino)-1-hydroxyethyl)-4-hydroxy-benzo[d]thiazol-2(3H)-one]
activation at 1 µM [1]: 97%
inhibition at 1 µM [2]: 29%

O=C(Cn1ccc2cccc(Cl)c21)N1CCOC2(CCN(Cc3cc(F)cc(CCNC[C@H](O)c4ccc(O)c5[nH]c(=O)sc45)c3)CC2)C1 [Example 168, (R)-7-(2-(3-((4-(2-(7-chloro-1H-indol-1-yl)acetyl)-1-oxa-4,9-diazaspiro[5.5]undecan-9-yl)methyl)-5-fluorophenethylamino)-1-hydroxyethyl)-4-hydroxybenzo[d]thiazol-2(3H)-one]
activation at 1 µM [1]: 95%
inhibition at 1 µM [2]: 29%

O=C(CCn1cncn1)N1CCOC2(CCN(Cc3cc(F)cc(CCNC[C@H](O)c4ccc(O)c5[nH]c(=O)sc45)c3)CC2)C1 [Example 164, (R)-7-(2-(3-((4-(3-(1H-1,2,4-triazol-1-yl)propanoyl)-1-oxa-4,9-diazaspiro[5.5]undecan-9-yl)methyl)-5-fluorophenethylamino)-1-hydroxyethyl)-4-hydroxybenzo[d]thiazol-2(3H)-one]
activation at 1 µM [1]: 99%
inhibition at 1 µM [2]: 35%

O=C(Cc1ccccc1)N1CCOC2(CCN(CCOc3ccc(CNC[C@H](O)c4ccc(O)c5[nH]c(=O)sc45)cc3)CC2)C1 [Example 227, (R)-4-hydroxy-7-(1-hydroxy-2-(4-(2-(4-(2-phenylacetyl)-1-oxa-4,9-diazaspiro[5.5]undecan-9-yl)ethoxy)benzylamino)ethyl) benzo[d]thiazol-2(3H)-one]
activation at 1 µM [1]: 80%
inhibition at 1 µM [2]: 48%

O=C(c1cnc2ccccc2c1)N1CCOC2(CCN(Cc3cc(F)cc(CCNC[C@H](O)c4ccc(O)c5[nH]c(=O)sc45)c3)CC2)C1 [Example 172, (R)-7-(2-(3-fluoro-5-((4-(quinoline-3-carbonyl)-1-oxa-4,9-diazaspiro[5.5]undecan-9-yl)methyl)phenethylamino)-1-hydroxyethyl)-4-hydroxybenzo[d]thiazol-2(3H)-one]
activation at 1 µM [1]: 98%
inhibition at 1 µM [2]: 19%

O=C(CCCc1cccs1)N1CCOC2(CCN(CCCCCCCCCNC[C@H](O)c3ccc(O)c4[nH]c(=O)sc34)CC2)C1 [Example 183, (R)-4-hydroxy-7-(1-hydroxy-2-(9-(4-(4-(thiophen-2-yl)butanoyl)-1-oxa-4,9-diazaspiro[5.5]undecan-9-yl)nonylamino)ethyl)benzo[d]thiazol-2(3H)-one]
activation at 1 µM [1]: 91%
inhibition at 1 µM [2]: 97%

Cc1cc(C(=O)N2CCOC3(CCN(CCCCCCCCCNC[C@H](O)c4ccc(O)c5[nH]c(=O)sc45)CC3)C2)sc1C [Example 222, (R)-7-(2-(9-(4-(4,5-dimethylthiophene-2-carbonyl)-1-oxa-4,9-diazaspiro[5.5]undecan-9-yl)nonylamino)-1-hydroxyethyl)-4-hydroxybenzo[d]thiazol-2(3H)-one]
activation at 1 µM [1]: 87%
inhibition at 1 µM [2]: 91%
